In patent US20070270612A1, “Biocidal azole emulsion concentrates having high active ingredient content” (priority 2006, published 2007):
Read-outs that look alike come from different tables or passages of the source.

Columns and labels:
[1] = Solubility of biocides in solvents; assay type: physicochemical
Text: For example, Arch Wood Protection recently received US EPA registration on an end use wood preservative product having 5.0% tebuconazole, 5.0% propiconazole, 0.5% imidacloprid, and 89.5% inert ingredients (surfactants, etc). This is near the solubility limit of the carrier, that is, very little additional biocidal azole can be dissolved in that material. This is about 20 parts biocidal azoles per part of imidacloprid. Other commercially importants formulations include tebuconazole and imidacloprid in a ratio of about 50 parts to 1 part by weight, and 4 parts biocidal azoles (tebuconazole and propiconazole) per part by weight of permethin. In contrast, an exemplary formulation of the present invention comprises 15.0% tebuconazole (range 1-35%, preferably 5-20%), 15.0% propiconazole (range 1-40%, preferably 5-20%), 1.5% imidacloprid (range 0.2%-3%), 5.0% of an emulsifier blend (range 1-15%), 60.0% of a basic solvent such as N,N-dimethyldecanamide/octanamide (range 0.0-65%), and 3.5% N-methyl pyrrolidone (range 0.0-50%). The alkyl pyrrolidones can be included in component (A) compounds if an organic biocide is particularly difficult to dissolve.
Other biocides which could be used in this invention include those in the azole family and other organic molecules in general (fungicides and insecticides) that are applicable to wood preservation. These could be combined in any number of mixtures and variations, including two-ways, four-ways, etc. or alone. A large number of surfactants that can be used as emulsifier components to make an EC. It really comes down to the formulator's preference. Similarly, there are many other solvents that could be used to dissolve these active ingredients and make an EC or microemulsion from an emulsion concentrate (MEC). When the compositions are diluted and undergo sufficient shear to form a microemulsion, the resultant microemulsion is stable at all reasonably useful levels of water dilution and remain thermodynamically stable and clear, opalescent, or only slightly cloudy. […]

[2] = Particle size distribution on wet ball milling with 0.3 mm zirconia; assay type: physicochemical
Text: Milling tebuconazole with 0.3 mm zirconium oxide milling material. Tebuconazole is a preferred organic biocide for use in wood and also for selected foliar applications and for incorporation into biocidal materials. […] Exemplary other preferred biocides from the same class of material include cyproconazole, tetraconazole, difenoconazole, diniconazole, penconazole, imibenconazole, propiconazole, azaconazole, and epoxyconazole. […] A CB Mills Vertical Mill Model: L-1 mill was used in this experiment. […] The original d50 (the diameter at which 50% by weight of the particles have an effective diameter equal to or less than the d50) of the tebuconazole, prior to wet milling, was about 25 microns, with about a fourth of the tebuconazole in particles […] having a particle size less than 4 microns. The milling media was 0.3-0.5 mm Yttrium doped Zirconium Oxide. The density of the yttrium-doped zirconium oxide is ˜6.0 g/cm^3. […] Generally, for injecting into wood, we prefer less than 2% by weight of particles have a diameter greater than 1 micron, more preferably 0.7 microns. The residual large particles can be separated from the slurry by centrifugation and then be sent back to the mill for additional milling.

Q: With `O=[N+]([O-])NC1=NCCN1Cc1ccc(Cl)nc1` [Imidacloprid] as the compound, how does the “solubility in most every EPA approved solvent” value [1] read?
A: The value was “sparingly soluble”.

Q: For `CC(C)(C)C(O)(CCc1ccc(Cl)cc1)Cn1cncn1` (stereo not drawn) [Tebuconazole], which “solubility in N,N-dimethylcapramide” value [1] is on record?
A: The value was “very soluble”.

Q: What about the “Volume % With Diameter 1-10 μm” value ([2]; milling time 0 mins) of the same compound?
A: Its value is 4 Volume %.

Q: What about the “Volume % With Diameter 10-25 μm” value ([2]; milling time 0 mins) of the same compound?
A: The value was 42.2 Volume %.

Q: What about the “Volume % With Diameter 25-50 μm” value ([2]; milling time 0 mins) of the same compound?
A: The value was 27.2 Volume %.

Q: And the “Volume % With Diameter >50 μm” value ([2]; milling time 0 mins)?
A: The value was 26.6 Volume %.

Q: What about the “Volume % With Diameter 0.2-1 μm” value ([2]; milling time 150 mins) of the same compound?
A: The value was 20.7 Volume %.

Q: And the “Volume % With Diameter 1-10 μm” value ([2]; milling time 150 mins)?
A: Its value is 4.2 Volume %.

Q: And the “Volume % With Diameter 10-25 μm” value ([2]; milling time 150 mins)?
A: Its value is 3.6 Volume %.

Q: And the “Volume % With Diameter 25-50 μm” value ([2]; milling time 150 mins)?
A: The value was 0 Volume %.

Q: And the “Volume % With Diameter <0.2 μm” value ([2]; milling time 150 mins)?
A: Its value is 71.5 Volume %.

Q: And the “Volume % With Diameter >50 μm” value ([2]; milling time 150 mins)?
A: Its value is 0 Volume %.

Q: And the d50 ([2]; prior to wet milling)?
A: Its d50 is “about 25 microns”.

Q: What about the “weight % having a particle size less than 4 microns” value ([2]; prior to wet milling) of the same compound?
A: Its value is “about 4 % by weight”.

Q: For `CCCC1COC(Cn2cncn2)(c2ccc(Cl)cc2Cl)O1` (stereo not drawn) [propiconazole], which “solubility in N,N-dimethylcapramide” value ([1]; solvent N,N-DMC) is on record?
A: Its value is “very soluble”.
